Target: T1, androgen receptor (Homo sapiens, UniProt P10275)
T1 construct: expressed in transfected cells; host or cells: 293 cells
T1 sequence (P10275 1-920): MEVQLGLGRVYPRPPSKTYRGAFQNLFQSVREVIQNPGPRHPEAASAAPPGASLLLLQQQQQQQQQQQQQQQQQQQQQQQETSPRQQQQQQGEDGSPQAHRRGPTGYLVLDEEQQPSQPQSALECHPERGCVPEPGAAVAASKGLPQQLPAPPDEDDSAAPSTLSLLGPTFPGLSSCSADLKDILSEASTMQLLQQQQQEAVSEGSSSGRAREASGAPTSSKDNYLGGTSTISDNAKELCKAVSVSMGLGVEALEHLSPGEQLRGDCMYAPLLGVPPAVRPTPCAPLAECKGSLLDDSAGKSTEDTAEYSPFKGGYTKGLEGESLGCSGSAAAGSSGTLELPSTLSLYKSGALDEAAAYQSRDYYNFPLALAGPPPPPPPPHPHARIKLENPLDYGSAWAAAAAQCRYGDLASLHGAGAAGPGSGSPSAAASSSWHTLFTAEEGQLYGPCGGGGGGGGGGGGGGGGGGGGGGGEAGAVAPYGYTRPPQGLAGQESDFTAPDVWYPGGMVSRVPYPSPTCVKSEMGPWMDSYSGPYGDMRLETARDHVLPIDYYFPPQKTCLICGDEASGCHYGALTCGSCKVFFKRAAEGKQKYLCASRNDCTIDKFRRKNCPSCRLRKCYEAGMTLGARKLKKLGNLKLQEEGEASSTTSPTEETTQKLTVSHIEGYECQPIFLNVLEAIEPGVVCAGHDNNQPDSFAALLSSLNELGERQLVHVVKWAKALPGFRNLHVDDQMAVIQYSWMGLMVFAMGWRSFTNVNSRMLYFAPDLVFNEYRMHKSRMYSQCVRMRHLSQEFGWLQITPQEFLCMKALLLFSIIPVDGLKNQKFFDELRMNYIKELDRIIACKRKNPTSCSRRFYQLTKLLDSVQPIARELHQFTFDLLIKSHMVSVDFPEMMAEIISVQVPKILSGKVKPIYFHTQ
T1 sequence (Q14192 1-279 partner): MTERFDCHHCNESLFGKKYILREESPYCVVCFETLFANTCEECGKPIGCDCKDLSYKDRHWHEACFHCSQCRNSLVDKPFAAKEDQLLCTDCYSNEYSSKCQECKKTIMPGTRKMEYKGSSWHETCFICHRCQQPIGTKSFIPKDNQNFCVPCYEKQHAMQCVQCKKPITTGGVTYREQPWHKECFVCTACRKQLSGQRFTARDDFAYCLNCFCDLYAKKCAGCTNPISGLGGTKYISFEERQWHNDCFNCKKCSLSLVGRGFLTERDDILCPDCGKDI
Experiment: androgen receptor co-activation, MMTV-LUC or proteasin-Luc reporter, transient transfection
Assay type: cell-based
Conditions: 293 cells; androgen receptor-expression-plasmid co-transfected

C[C@]1(O)CC[C@H]2[C@@H]3CCC4=CC(=O)CCC4=C3C=C[C@@]21C [R1881, reference compound]
transactivation of the reporter gene: transactivated

Reference: patent publication US20020004209A1, “Use of SLIM3 for binding to molecules” (Schering Aktiengesellschaft Patents, priority 1999, published 2002)
